Target: S1P1/EDG1 (Homo sapiens, UniProt P21453)
Assay: S1P1 CRE-bla CHOK1 reporter assay (inhibition of Forskolin induced cAMP)
Assay type: cell-based
Settings: agonist activity range, Table 2; read-out: S1P1 ACTIVITY
In short: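 Stable CRE-bla CHO-K1 clone expressing human S1P1, serum-starved (0.5% stripped serum) 18 h, then treated with compound (10-point curve) plus 2 μM forskolin for 4 h at 37 °C. β-lactamase FRET ratio (458/522 nm) read after 2 h substrate loading; EC50 for inhibition of forskolin-induced cAMP by non-linear regression.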

Sequence of S1P1/EDG1 (P21453 whole entry): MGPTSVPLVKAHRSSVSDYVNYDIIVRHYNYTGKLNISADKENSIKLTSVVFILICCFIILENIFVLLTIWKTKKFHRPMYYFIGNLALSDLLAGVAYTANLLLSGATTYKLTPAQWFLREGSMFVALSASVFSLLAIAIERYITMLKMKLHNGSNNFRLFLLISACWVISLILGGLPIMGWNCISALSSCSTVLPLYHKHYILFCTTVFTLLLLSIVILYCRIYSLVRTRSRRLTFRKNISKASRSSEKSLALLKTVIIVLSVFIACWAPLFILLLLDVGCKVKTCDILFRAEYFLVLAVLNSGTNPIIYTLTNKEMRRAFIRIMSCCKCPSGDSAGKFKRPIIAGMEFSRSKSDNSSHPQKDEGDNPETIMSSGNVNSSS

SMILES	EC50 [nM]
CC(C)Oc1ccc(-c2ncc(-c3cccc4c3CC[C@@H]4NS(=O)(=O)CCN3CCC(O)CC3)s2)cc1C#N [Compound 146]	0.5 to 5
COC(=O)CC1CCN(CCS(=O)(=O)N[C@H]2CCc3c(-c4cnc(-c5ccc(OC(C)C)c(C#N)c5)s4)cccc32)CC1 [Compound 147]	0.5 to 5
CC(C)Oc1ccc(-c2ncc(-c3cccc4c3CC[C@@H]4NS(=O)(=O)CCN3CCC(CC(=O)O)CC3)s2)cc1C#N [Compound 148]	0.5 to 5
CC(C)Oc1ccc(-c2ncc(-c3cccc4c3CC[C@@H]4NS(=O)(=O)CCN3CCC(CO)CC3)s2)cc1C#N [Compound 149]	0.5 to 5
CC(C)Oc1ccc(-c2ncc(-c3cccc4c3CC[C@@H]4NS(=O)(=O)CCN3CC(O)C3)s2)cc1C#N [Compound 150]	0.5 to 5
CC(C)Oc1ccc(-c2ncc(-c3cccc4c3CC[C@@H]4NS(=O)(=O)CCN3CCNCC3)s2)cc1C#N [Compound 151]	> 5
CC(C)Oc1ccc(-c2ncc(-c3cccc4c3CC[C@@H]4NS(=O)(=O)CCN3CCC(N(C)C)CC3)s2)cc1C#N [Compound 153]	> 5
COC(=O)CS(=O)(=O)N[C@H]1CCc2c(-c3cnc(-c4ccc(OC(C)C)c(C#N)c4)s3)cccc21 [Compound 155, (S)-methyl 2-(N-(4-(2-(3-cyano-4-isopropoxyphenyl)thiazol-5-yl)-2,3-dihydro-1H-inden-1-yl)sulfamoyl)acetate]	0.5 to 5
COC(=O)CCS(=O)(=O)N[C@H]1CCc2c(-c3cnc(-c4ccc(OC(C)C)c(C#N)c4)s3)cccc21 [Compound 156]	0.05 to 0.5
CC(C)Oc1ccc(-c2ncc(-c3cccc4c3CC[C@@H]4NS(=O)(=O)CC(=O)O)s2)cc1C#N [Compound 159, (S)-2-(N-(4-(2-(3-cyano-4-isopropoxyphenyl)thiazol-5-yl)-2,3-dihydro-1H-inden-1-yl)sulfamoyl)acetic acid]	0.05 to 0.5
CC(C)Oc1ccc(-c2ncc(-c3cccc4c3CC[C@@H]4NS(=O)(=O)CCC(=O)O)s2)cc1C#N [Compound 160]	< 0.05
CC(C)Oc1ccc(-c2ncc(-c3cccc4c3CC[C@@H]4NS(=O)(=O)CCC(=O)O)s2)cc1C#N [Compound 161]	0.05 to 0.5
CC(C)Oc1ccc(-c2ncc(-c3cccc4c3CC[C@@H]4NS(=O)(=O)CC(=O)N3CC(O)C3)s2)cc1C#N [Compound 163]	0.05 to 0.5
CC(C)Oc1ccc(-c2ncc(-c3cccc4c3CC[C@@H]4NS(=O)(=O)CCO)s2)cc1C#N [Compound 165, (S)-N-(4-(2-(3-cyano-4-isopropoxyphenyl)thiazol-5-yl)-2,3-dihydro-1H-inden-1-yl)-2-hydroxyethanesulfonamide]	0.5 to 5
CC(C)Oc1ccc(-c2ncc(-c3cccc4c3CC[C@@H]4NS(N)(=O)=O)s2)cc1C#N [Compound 167, (S)-N-(4-(2-(3-cyano-4-isopropoxyphenyl)thiazol-5-yl)-2,3-dihydro-1H -inden-1-yl)sulfamide]	0.05 to 0.5
CC(C)Oc1ccc(-c2ncc(-c3cccc4c3CC[C@@H]4NC(=O)N(C)C)s2)cc1C#N [Compound 168]	0.05 to 0.5
CC(C)Oc1ccc(-c2ncc(-c3cccc4c3CC[C@@H]4NC(=O)N(C)C)s2)cc1C#N [Compound 169]	0.5 to 5
CC(C)Oc1ccc(-c2ncc(-c3cccc4c3CC[C@@H]4NC(=O)N3CC(O)C3)s2)cc1C#N [Compound 170]	0.5 to 5
CC(C)Oc1ccc(-c2ncc(-c3cccc4c3CC[C@@H]4NC(=O)N3CC(O)C3)s2)cc1C#N [Compound 171]	0.05 to 0.5
CC(C)Oc1ccc(-c2ncc(-c3cccc4c3CC[C@@H]4NC(=O)N3CCCC3)s2)cc1C#N [Compound 173, (S)-N-(4-(2-(3-cyano-4-isopropoxyphenyl)thiazol-5-yl)-2,3-dihydro-1H-inden-1-yl)pyrrolidine-1-carboxamide]	0.5 to 5
CC(C)Oc1ccc(-c2ncc(-c3cccc4c3CC[C@@H]4NC(=O)N3CC[C@@H](O)C3)s2)cc1C#N [Compound 174]	0.05 to 0.5
CC(C)Oc1ccc(-c2ncc(-c3cccc4c3CC[C@@H]4NC(=O)N3CC[C@H](O)C3)s2)cc1C#N [Compound 175]	0.5 to 5

From US8507538B2, “Selective heterocyclic sphingosine 1 phosphate receptor modulators” (Receptos, Inc., priority 2009, dated 2013)
